How the values were obtained:
lens [1] = experiment: Pharmacological Test 1: lens elasticity after instillation of EV06; type: in vivo, C57BL/6J mice; details: all of the 0.5%, 1.5% and 5% groups compared with vehicle control group
Experimental: The effect of lipoic acid choline ester (EV06) on the lens elasticity was examined. The tests were conducted with reference to the methods described in InvestOphthalmol Vis Sci, 57, 2851-2863, 2016. EV06 is a compound represented by the following formula (2): A vehicle comprising 0.1% (w/v) of ethyl pyruvate, 0.269% (w/v) of sodium dihydrogenphosphate monohydrate (NaH2PO4H2O), 0.433% (w/v) of disodium hydrogenphosphate ([…]), 0.2% (w/v) of hydroxypropyl methylcellulose, and 0.5% (w/v) of NaCl was prepared. EV06 was sonicated with the addition of the vehicle to prepare a 5% (w/v) suspension. The resulting 5% (w/v) suspension was diluted with the vehicle to prepare a 1.5% (w/v) solution. Further, the resulting 1.5% (w/v) solution was diluted with the vehicle to prepare a 0.5% (w/v) solution. The total amount of each sample to be used in one day was prepared before use. […] 4) The lens was placed on a glass slide, and an all-in-one fluorescence microscope BZ-9000 (Keyence) was used to capture an image of the lens (Image a). […] 6) A change in the lens diameter was calculated from Equation 1 wherein the lens diameter of Image a is subtracted from the lens diameter of Image b, as described below. Then, the lens elasticity improvement of each sample group compared with the vehicle control group was calculated from Equation 2 described below. […]

[2] = system: anterior segment of the eye; experiment: Ocular Irritation Test (McDonald-Shadduck method, lens observation, histopathology); type: in vivo, Japanese White rabbits
Experimental: A vehicle (aqueous solution) comprising 0.1% (w/v) of ethyl pyruvate, 0.269% (w/v) of sodium dihydrogenphosphate monohydrate ([…]), 0.433% (w/v) of disodium hydrogenphosphate (Na2HPO4), 0.2% (w/v) of hydroxypropyl methylcellulose, 0.5% (w/v) of NaCl was prepared.
Group treated with an ophthalmic suspension of ursodeoxycholic acid 1% (w/v), 3% (w/v), and 10% (w/v) ursodeoxycholic acid ophthalmic suspensions were prepared in the same manner as in the above pharmacological tests. These ophthalmic suspensions and the vehicle were each instilled into the left eye of Japanese White rabbits at a dose of 50 μL/eye with pipette twice per day at a 6-hour interval for 2 weeks. One hour after the final instillation, ocular irritation of anterior segment of the eye was evaluated according to the McDonald-Shadduck method, and the lens was observed. The contralateral eye was untreated.
The ocular irritation of anterior segment of the eye was scored according to the following criteria:
+1: mild; +2: moderate; +3: severe.

lens [3] = experiment: Pharmacological Test 5: lens elasticity, 1% ursodeoxycholic acid once-daily for 1, 3, 7, 10 or 14 days; type: in vivo, C57BL/6J mice; details: for Lens elasticity improvement: 1% sample, QD, 24 h after final instillation, vs untreated group
Experimental: A vehicle comprising 0.1% (w/v) of ethyl pyruvate, 0.269% (w/v) of sodium dihydrogenphosphate monohydrate (NaH2PO4H2O), 0.433% (w/v) of disodium hydrogenphosphate (Na2HPO4), 0.2% (w/v) of hydroxypropyl methylcellulose, 0.5% (w/v) of NaCl was prepared. Ursodeoxycholic acid was sonicated with the addition of the vehicle to prepare a 1.0% (w/v) suspension. The total amount of the sample to be used in one day was prepared before use. 1) The test sample (2.5 μL/eye) was instilled into both eyes of 8-month-old C57BL/6J mice with a Pipetman once per day (QD; around 13:30) for 1, 3, 7, 10, or 14 days. 2) Twenty-four hours after the final instillation, the mice were euthanized by carbon dioxide inhalation, and then the eyeballs were extracted and rinsed with Hank's balanced salt solution (HBSS). 3) The sclera near the optic nerve was cut with a razor, the lens was removed through the incision, and the removed lens was immersed in HBSS. 4) The lens was placed on a glass slide, and an all-in-one fluorescence microscope BZ-9000 (Keyence) was used to capture an image of the lens (image a). 5) Next, one cover glass (Corning^(registered trade mark) 22×22 mm Square) was placed on the lens, and an image in which the thickness of the lens changed due to the weight was similarly captured (Image b). 6) A change in the lens diameter was calculated from Equation 1 wherein the lens diameter of Image a is subtracted from the lens diameter of Image b, as described below. Then, the lens elasticity improvement of each sample group compared with the […] was calculated from Equation 2 described below. Each mean of the untreated group and each ursodeoxycholic acid sample group was based on 9 or 10 eyes. Change in lens diameter=Lens diameter in Image b of each test sample−Lens diameter in Image a of each test sample (Equation 1) Lens elasticity improvement of each sample group=Mean change in lens diameter of each Test sample group−Mean change in lens diameter of Untreated group (Equation 2)

[4] = after 2 week-repeated instillation of 1%, 3%, 10% ophthalmic suspensions

| SMILES | Lens diameter / elasticity improving effect, in words (lens [1]) | Histopathological examination of the eyes, in words [2, 4] | Observation of ocular irritation of anterior segment of the eye and lens observation, in words [2, 4] | Safety of the ophthalmic suspensions, in words ([2]; rabbit, in vivo) | Lens elasticity improvement, in words (lens [3]; 1% sample instilled once-daily, by duration of instillation) | Lens elasticity improvement (lens [3]; 1 day) [μm] | Lens elasticity improvement (lens [3]; 3 days) [μm] | Lens elasticity improvement (lens [3]; 7 days) [μm] | Lens elasticity improvement (lens [3]; 10 days) [μm] | Lens elasticity improvement (lens [3]; 14 days) [μm] |
| --- | --- | --- | --- | --- | --- | --- | --- | --- | --- | --- |
| C[N+](C)(C)CCOC(=O)CCCC[C@@H]1CCSS1 [EV06, lipoic acid choline ester] | increased lens diameter |  |  |  |  |  |  |  |  |  |
| C[C@H](CCC(=O)O)[C@H]1CC[C@H]2[C@@H]3[C@@H](O)C[C@@H]4C[C@H](O)CC[C@]4(C)[C@H]3CC[C@]12C [ursodeoxycholic acid, 3α,7β-Dihydroxy-5β-cholan-24-oic acid] |  | no abnormal findings | no abnormal findings | highly safe | showed definitely an improvement in lens elasticity after instillation for 3 days | 9.6 | 21.1 | 27.4 | 38.1 | 34.2 |
